Patent publication US20180161300A1, “CITRIN INHIBITORS FOR THE TREATMENT OF CANCER” (Yeda Research And Development Co. Ltd., priority 2015, published 2018)
One block for each molecule: values may come before it.

How the values were obtained:
[1] = molecular target: T1, Citrin (Homo sapiens, UniProt Q9UJS0); assay: Metabolomics analysis for potential citrin inhibitors (15N-alpha-glutamine labelling, GC-MS); format: cell-based; design: endogenous in cells; host or cells: U2OS osteosarcoma cells; conditions: U2OS, 4 mM L-Glutamine (ALPHA-15N), compound 10-100 μM, 24 hours
T1 sequence (Q9UJS0 1-675): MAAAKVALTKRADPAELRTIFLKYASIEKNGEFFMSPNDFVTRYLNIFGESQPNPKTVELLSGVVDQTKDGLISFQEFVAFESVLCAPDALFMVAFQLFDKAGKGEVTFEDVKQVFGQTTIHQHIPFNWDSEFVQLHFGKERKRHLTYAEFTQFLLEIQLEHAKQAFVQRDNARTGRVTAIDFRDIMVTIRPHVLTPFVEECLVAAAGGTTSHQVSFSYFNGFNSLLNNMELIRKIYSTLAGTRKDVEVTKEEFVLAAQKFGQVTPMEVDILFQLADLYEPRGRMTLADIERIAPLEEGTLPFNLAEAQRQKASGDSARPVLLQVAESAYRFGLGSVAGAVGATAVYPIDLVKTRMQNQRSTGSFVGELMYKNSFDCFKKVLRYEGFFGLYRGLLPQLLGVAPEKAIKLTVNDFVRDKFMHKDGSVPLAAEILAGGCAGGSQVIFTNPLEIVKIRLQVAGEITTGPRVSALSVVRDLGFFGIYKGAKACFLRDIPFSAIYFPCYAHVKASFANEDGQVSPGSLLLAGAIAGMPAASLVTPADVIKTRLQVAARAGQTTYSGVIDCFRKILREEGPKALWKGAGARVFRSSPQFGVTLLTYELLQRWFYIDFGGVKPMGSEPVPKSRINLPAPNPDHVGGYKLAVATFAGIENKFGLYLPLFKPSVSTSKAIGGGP
Experimental: Osteosarcoma cell line (U2OS) were seeded at 1.5 to 2×10^6 cells per 10 cm plate. The next day (60% confluence) the cells were incubated with 4 mM of L-Glutamine (ALPHA-15N, 98%; Cat. Number: NLM-1016-1; Cambridge Isotope Laboratories) in the presence of either control (medium only) or one of compounds 1, 2, or 3 (at a concentration range between 10-100 μM), for 24 hours. Compound “1”=D-Glutamic acid; compound “2”=L-glutamic acid-5-methyl ester; “compound “3”=L-glutamic acid-gamma-benzyl ester. Compounds 1-3 are commercially available and were bought from Sigma Aldrich. Subsequently, cells were washed with ice-cold saline, lysed with 50% methanol in water and quickly scraped followed by three freeze-thaw cycles in liquid nitrogen. The insoluble material was pelleted in a cooled centrifuge (4° C.) and the supernatant was collected for consequent GC-MS analysis. Samples were dried under air flow at 42° C. using a Techne Dry-Block Heater with sample concentrator (Bibby Scientific) and the dried samples were treated with 40 μl of a methoxyamine hydrochloride solution (20 mg ml^−1 in pyridine) at 37° C. for 90 minutes while shaking followed by incubation with 70 μl N,O-bis (trimethylsilyl) trifluoroacetamide (Sigma) at 37° C. for an additional 30 minutes.
GC-MS analysis used a gas chromatograph (7820AN, Agilent Technologies) interfaced with a mass spectrometer (5975 Agilent Technologies). An HP-5 ms capillary column 30 m×250 μm×0.25μm (19091S-433, Agilent Technologies) was used. Helium carrier gas was maintained at a constant flow rate of 1.0 ml min −1. The GC column temperature was programmed from 70 to 150° C. via a ramp of 4° C. min −1, […] via a ramp of 9° C. min −1, 215-300° C. via a ramp of 25° C. min −1 and maintained at 300° C. for an additional 5 minutes. The MS was by electron impact ionization and operated in full-scan mode from m/z=30-500. The inlet and MS transfer line temperatures were maintained at 280° C., and the ion source temperature was 250° C. Sample injection (1 μl) was in splitless mode.
Specifically, Aspartate at a mass of M+1 is a metabolite that comes out of the mitochondria via Citrin.

[2] = system: U2OS human osteosarcoma cell-line transduced with shASS1; assay: Crystal violet proliferation, arginine deprivation combined with drug treatments; format: cell-based
Experimental: Cells were seeded in 12-well plates at 70,000 cells/well in a triplicate. Time 0 was calculated as the time the cells became adherent, which was after about 6 hours from plating. For each time point, cells were washed with PBS X1 and fixed in 4% PFA (in PBS). Cells were then stained with 0.1% Crystal Violet (Catalog #: C0775, Sigma-Aldrich) for 20 minutes (1 ml per well) and washed with water. Cells were then incubated with 10% acetic acid for 20 minutes with shaking. Extract was then diluted 1:4 in water and absorbance was measured at 590 nm every 24 hours.
U2OS human osteosarcoma cell-line was seeded in 6-well plates at 80,000 cells/well. The following day, cells were treated with either 100 nM Rapamycin (#R0395, Sigma-Aldrich) or with 10 μM 5FU (#F6627, Sigma-Aldrich) in regular medium, with 10% dialyzed FCS-arginine-free-RPMI (Catalogue No. 06-1104-34-1A, Biological Industries, Kibbutz beit-haemek, Israel), or with both arginine depleted medium and one of these drugs. Rapamycin and 5FU were renewed into the medium every day, whereas fresh arginine-free medium was supplemented twice a week.

[3] = system: Citrin; assay: Western blot of citrin protein after shCitrin; format: cell-based, human; conditions: MDA-MB-435, Dox induction
Experimental: Cells were lysed in RIPA (Sigma-Aldrich) and 0.5% protease inhibitor cocktail (Calbiochem). After centrifugation, the supernatant was collected and protein content was evaluated by the Bradford assay. One hundred micrograms from each sample under reducing conditions were loaded into each lane and separated by electrophoresis on a 10% SDS polyacrylamide gel. After electrophoresis, proteins were transferred to Immobilon transfer membranes (Tamar). Non-specific binding was blocked by incubation with TBST (10 mM Tris-HCl (pH 8.0), 150 mM NaCl, 0.1% Tween 20), containing 3% albumin from bovine serum for 1 hour at 25° C. Membranes were subsequently incubated with antibodies against Citrin (1:200, H00010165-M01, Abnova), ASS1 (1:500, sc-99178, Santa Cruz Biotechnology) and p97 (1:10,000, PA5-22257, Thermo Scientific). Antibody was detected using peroxidase-conjugated AffiniPure goat anti-rabbit IgG or goat anti-mouse IgG (Jackson ImmunoResearch) and enhanced chemiluminescence Western blotting detection reagents (EZ-Gel, Biological Industries). Gels were quantified by Gel Doc XR+(BioRad) and analysed by ImageLab 4.1 software (BioRad). The band area was calculated by the intensity of the band. The obtained value was then divided by the value obtained from the loading control. […]

[4] = molecular target: T1, Citrin; conditions: at 1 about mM; cited from earlier work

Uracil M+1 inhibition (in words) [1]: inhibited
Molecule: COC(=O)CC[C@H](N)C(=O)O [Compound 2, L-glutamic acid-5-methyl ester]

Molecule: N[C@H](CCC(=O)O)C(=O)O [Compound 1, D-Glutamic acid]
Uracil M+1 inhibition (in words) [1]: inhibited

Molecule: O=c1[nH]cc(F)c(=O)[nH]1 [5FU, Fluorouracil]
proliferation, drug together with arginine depleted medium ([2]; U2OS shASS1, arginine depleted medium plus 100 nM Rapamycin or 10 μM 5FU): significant additive beneficial effect | proliferation, isolated drug treatment ([2]; U2OS shASS1, complete medium, 100 nM Rapamycin or 10 μM 5FU): more beneficial than Rapamycin

Aspartate M+1 relative to control [1]: inhibited | Uracil M+1 inhibition [1]: ~35%
Molecule: N[C@@H](CCC(=O)OCc1ccccc1)C(=O)O [Compound 3, L-glutamic acid-gamma-benzyl ester]

Molecule: 5′-TTAAGAAAGTGCTACGCTA-3′ (expressed or natural sequence) [sh901]
citrin protein production (Western blot) [3]: no production of citrin

Molecule: CCN1C(=O)C=CC1=O [N-ethylmaleimid]
inhibition of citrin in vitro [4]: about 50%

Molecule: 5′-GTATCCTATCGATCTTGTA-3′ (expressed or natural sequence) [sh909]
citrin protein production (Western blot) [3]: no production of citrin
